In ChEMBL document CHEMBL4376831, “Enhancing the Cell Permeability of Stapled Peptides with a Cyclic Cell-Penetrating Peptide” (J Med Chem, 2019):
Active and inactive are the calls of the source. No cut-off for these calls is given here. *1 amine or outer side, *2 acyl side, *3 side chain or, on linkers, in order; H or OH if unused. Where a SMILES comes first, the peptide text is derived from it. Bridges are numbered along the chain shown (N, C = ends). Roman numbers before positions name the chains, in order. [ ]: non-standard residue; d: D form. The star is where a group is joined. X2 = O=C(O)c1cc(C(=O)*)ccc1-c1c2ccc3cc(O)ccc3c2oc2c1ccc1cc(=O)ccc12; 2Nal = N[C@@H](Cc1ccc2ccccc2c1)C(=O)O; mXylylene = c1cc(C[*:1])cc(C[*:2])c1; AEEA = NCCOCCOCC(=O)O; βAla = NCCC(=O)O

Columns and labels:
SW480 = experiment: Antiproliferative activity against human SW480 cells incubated for 72 hrs by MTT assay; format: functional, cell-based; conditions: SW480, 72 h
MCF7 [1] = experiment: Antiproliferative activity against human MCF7 cells incubated for 72 hrs by MTT assay; format: functional, cell-based
HeLa [2] = experiment: Cytotoxicity against human HeLa cells incubated for 72 hrs using FAM-labeled compound by MTT assay; format: cell-based
SJSA-1 [3] = conditions: Homo sapiens
HeLa [4] = experiment: Induction of cell membrane disruption in human HeLa cells incubated for 4 hrs using FAM-labeled compound by LDH assay; format: cell-based
[5] = Permeability of the compound in human HeLa cells at 5 uM incubated for 2 hrs by flow cytometric analysis relative to CPP9; format: ADME, cell-based
SJSA-1 [6] = experiment: cells; conditions: Homo sapiens, SJSA-1, 72 h
HeLa [7] = experiment: Induction of apoptosis in human HeLa cells expressing wild-type p53 at =< 10 uM incubated for 48 hrs by Annexin V/propidium iodide-staining based flow cytometric analysis relative to control; format: functional
HeLa [8] = experiment: Induction of cell membrane disruption in human HeLa cells expressing wild-type p53 at =>20 uM incubated for 4 hrs by LDH assay relative to control; format: functional
SJSA-1 [9] = experiment: Induction of apoptosis in human SJSA1 cells at 10 uM incubated for 48 hrs by Annexin V/propidium iodide-staining based flow cytometric analysis; format: functional, cell-based
MCF7 [10] = experiment: Induction of apoptosis in human MCF7 cells expressing wild-type p53 at =< 10 uM incubated for 48 hrs by Annexin V/propidium iodide-staining based flow cytometric analysis relative to control; format: functional
HCT-116 [11] = experiment: Induction of cell membrane disruption in human HCT116 cells expressing wild-type p53 at =>20 uM incubated for 4 hrs by LDH assay relative to control; format: functional
MCF7 [12] = experiment: Induction of cell membrane disruption in human MCF7 cells expressing wild-type p53 at =>20 uM incubated for 4 hrs by LDH assay relative to control; format: functional
HCT-116 [13] = experiment: Induction of apoptosis in human HCT116 cells expressing wild-type p53 at =< 10 uM incubated for 48 hrs by Annexin V/propidium iodide-staining based flow cytometric analysis relative to control; format: functional
SJSA-1 [14] = experiment: Antiproliferative activity against human SJSA1 cells expressing wild-type p53 upto 20 uM incubated for 72 hrs by MTT assay; format: functional, cell-based

In the case of `CC[C@H](C)[C@@H]1NC(=O)[C@@H](NC(=O)[C@H](CCC(=O)O)NC(=O)[C@@H]2CCCN2C(=O)[C@H](Cc2ccc(O)cc2)NC(=O)CNC(=O)CNC(C)=O)CC(=O)NCCCC[C@@H](C(=O)N[C@@H](Cc2cnc[nH]2)C(=O)N[C@@H](CC(C)C)C(=O)N[C@@H](CCC(N)=O)C(=O)N[C@@H](CCCNC(=N)N)C(=O)N[C@H](C(=O)N[C@H](C(=O)N[C@@H](CC(C)C)C(=O)NCCOCCOCC(=O)NCCOCCOCC(=O)N[C@@H](CNC(=O)[C@H](CCCNC(=N)N)NC(=O)[C@H](CCCNC(=N)N)NC(=O)[C@H](CCCNC(=N)N)NC(=O)[C@H](CCC(N)=O)NC(=O)[C@H](CCCNC(=N)N)NC(=O)[C@H](CCCNC(=N)N)NC(=O)[C@H](CCCCN)NC(=O)[C@H](CCCCN)NC(=O)[C@H](CCCNC(=N)N)NC(=O)CNC(=O)[C@H](Cc2ccc(O)cc2)NC(C)=O)C(N)=O)[C@@H](C)CC)C(C)C)NC(=O)[C@H](CC(=O)O)NC(=O)[C@H](CC(C)C)NC1=O`, the IC50 (SW480) is reported as over 20 µM and the Activity (MCF7 [1]) is reported as “Active”.
For `CC[C@H](C)[C@@H]1NC(=O)[C@@H](NC(=O)[C@H](CCC(=O)O)NC(=O)[C@@H]2CCCN2C(=O)[C@H](Cc2ccc(O)cc2)NC(=O)CNC(=O)CNC(C)=O)CC(=O)NCCCC[C@@H](C(=O)N[C@@H](Cc2cnc[nH]2)C(=O)N[C@@H](CC(C)C)C(=O)N[C@@H](CCC(N)=O)C(=O)N[C@@H](CCCNC(=N)N)C(=O)N[C@H](C(=O)N[C@H](C(=O)N[C@@H](CC(C)C)C(=O)NCCOCCOCC(=O)NCCOCCOCC(=O)N[C@@H](CNC(=O)[C@H](CCCNC(=N)N)NC(=O)[C@H](CCCNC(=N)N)NC(=O)[C@H](CCCNC(=N)N)NC(=O)[C@H](CCCNC(=N)N)NC(=O)[C@H](CCCNC(=N)N)NC(=O)[C@H](CCCNC(=N)N)NC(=O)[C@H](CCCNC(=N)N)NC(=O)[C@H](CCCNC(=N)N)NC(=O)[C@H](CCCNC(=N)N)NC(C)=O)C(N)=O)[C@@H](C)CC)C(C)C)NC(=O)[C@H](CC(=O)O)NC(=O)[C@H](CC(C)C)NC1=O`, the IC50 (SW480) was over 20 µM and the Activity (MCF7 [1]) was “Active”.
For `CC(=O)N[C@@H](Cc1ccc(O)cc1)C(=O)NCC(=O)N[C@@H](CCCNC(=N)N)C(=O)N[C@@H](CCCCN)C(=O)N[C@@H](CCCCN)C(=O)N[C@@H](CCCNC(=N)N)C(=O)N[C@@H](CCCNC(=N)N)C(=O)N[C@@H](CCC(N)=O)C(=O)N[C@@H](CCCNC(=N)N)C(=O)N[C@@H](CCCNC(=N)N)C(=O)N[C@@H](CCCNC(=N)N)C(=O)NCCCC[C@H](NC(=O)COCCOCCNC(=O)[C@H](CO)NC(=O)[C@@H](NC(=O)[C@H](CC(C)C)NC(=O)[C@H](CCC(N)=O)NC(=O)[C@@H]1CCCCNC(=O)C[C@H](NC(=O)[C@H](Cc2ccccc2)NC(=O)[C@@H](NC(=O)[C@H](CC(C)C)NC(C)=O)[C@@H](C)O)C(=O)N[C@@H](Cc2cnc[nH]2)C(=O)N[C@@H](Cc2ccc(O)cc2)C(=O)N[C@@H](Cc2c[nH]c3ccccc23)C(=O)N1)[C@@H](C)O)C(N)=O`, the Activity (HeLa [2]) was “Toxic”, the Activity (SJSA-1 [3]) was “inactive” and the Activity (HeLa [4]) was “Toxic”.
Work on `CC[C@H](C)[C@@H]1NC(=O)[C@@H](NC(=O)[C@H](CCC(=O)O)NC(=O)[C@@H]2CCCN2C(=O)[C@H](CC(N)=O)NC(=O)[C@H](CCC(=O)O)NC(=O)CCNC(=O)c2ccc(-c3c4ccc5cc(O)ccc5c4oc4c3ccc3cc(=O)ccc34)c(C(=O)O)c2)CSCc2cccc(c2)CSC[C@@H](C(=O)N[C@@H](Cc2cnc[nH]2)C(=O)N[C@H](C(=O)N[C@@H](CCC(N)=O)C(=O)N[C@@H](CCCNC(=N)N)C(=O)N[C@H](C(=O)N[C@@H](CCSC)C(N)=O)C(C)C)C(C)C)NC(=O)[C@H](CC(=O)O)NC(=O)[C@H](CC(C)C)NC1=O` ({X2-βAla}-ENPECILDCHVQRVM-NH2; linker 5-9 via mXylylene) yielded a permeability [5] of 2.5%.
Molecule `CC[C@H](C)[C@@H]1NC(=O)[C@@H](NC(=O)[C@H](CCC(=O)O)NC(=O)[C@@H]2CCCN2C(=O)[C@H](CC(N)=O)NC(=O)CCNC(=O)c2ccc(-c3c4ccc5cc(O)ccc5c4oc4c3ccc3cc(=O)ccc34)c(C(=O)O)c2)CSCc2cccc(c2)CSC[C@@H](C(=O)N[C@@H](Cc2cnc[nH]2)C(=O)N[C@H](C(=O)N[C@@H](CCC(N)=O)C(=O)N[C@@H](CCCNC(=N)N)C(=O)N[C@H](C(=O)N[C@@H](CCSC)C(N)=O)C(C)C)C(C)C)NC(=O)[C@H](CC(=O)O)NC(=O)[C@H](CC(C)C)NC1=O` ({X2-βAla}-NPECILDCHVQRVM-NH2; linker 4-8 via mXylylene) has a permeability [5] of 8.9%.
Molecule `COc1ccc(C2=N[C@@H](c3ccc(Cl)cc3)[C@@H](c3ccc(Cl)cc3)N2C(=O)N2CCNC(=O)C2)c(OC(C)C)c1` [NUTLIN-3] has an EC50 (SJSA-1 [6]) of 4.2 µM.
In the case of `CC(=O)N[C@@H](CCCNC(=N)N)C(=O)N[C@@H](CCCNC(=N)N)C(=O)N[C@@H](CCCNC(=N)N)C(=O)N[C@@H](CCCNC(=N)N)C(=O)N[C@@H](CCCNC(=N)N)C(=O)N[C@@H](CCCNC(=N)N)C(=O)N[C@@H](CCCNC(=N)N)C(=O)N[C@@H](CCCNC(=N)N)C(=O)N[C@@H](CCCNC(=N)N)C(=O)NCCCC[C@H](NC(=O)COCCOCCNC(=O)[C@H](CO)NC(=O)[C@@H](NC(=O)[C@H](CC(C)C)NC(=O)[C@H](CCC(N)=O)NC(=O)[C@@H]1CCCCNC(=O)C[C@H](NC(=O)[C@H](Cc2ccccc2)NC(=O)[C@@H](NC(=O)[C@H](CC(C)C)NC(C)=O)[C@@H](C)O)C(=O)N[C@@H](Cc2cnc[nH]2)C(=O)N[C@@H](Cc2ccc(O)cc2)C(=O)N[C@@H](Cc2c[nH]c3ccccc23)C(=O)N1)[C@@H](C)O)C(N)=O`, the Activity (HeLa [2]) is reported as “Toxic”, the Activity (SJSA-1 [3]) is reported as “inactive” and the Activity (HeLa [4]) is reported as “Toxic”.
With `CC(=O)N[C@@H](CC(C)C)C(=O)N[C@H](C(=O)N[C@@H](Cc1ccccc1)C(=O)N[C@H]1CC(=O)NCCCC[C@@H](C(=O)N[C@@H](CCC(N)=O)C(=O)N[C@@H](CC(C)C)C(=O)N[C@H](C(=O)N[C@@H](CO)C(=O)NCCOCCOCC(=O)N[C@@H](CCCCNC(=O)CC[C@@H]2NC(=O)[C@@H](CCCNC(=N)N)NC(=O)[C@H](CCCNC(=N)N)NC(=O)[C@@H](CCCNC(=N)N)NC(=O)[C@H](CCCNC(=N)N)NC(=O)[C@H](Cc3ccc4ccccc4c3)NC(=O)[C@@H](Cc3ccccc3)NC2=O)C(N)=O)[C@@H](C)O)NC(=O)[C@H](Cc2c[nH]c3ccccc23)NC(=O)[C@H](Cc2ccc(O)cc2)NC(=O)[C@H](Cc2cnc[nH]2)NC1=O)[C@@H](C)O` (I: Ac-LTFDHYWKQLTS[AEEA]K-NH2 / II: cyclo([2Nal]R[dR]R[dR]E[dF]); lactam I:4-I:8; amide I:14-II:6) the Activity (HeLa [2]) was “Toxic”, the Activity (HeLa [7]) was 5 - 50% and the Activity (HeLa [8]) was 100%. The Activity (SJSA-1 [9]) was “Active”, the Activity (MCF7 [10]) was 5 - 50% and the Activity (SJSA-1 [3]) was “Dose-dependent effect”. For the same molecule, the Activity (HeLa [4]) was “Toxic”, the EC50 (SJSA-1 [6]) was 3.8 µM and the Activity (HCT-116 [11]) was 100%. The Activity (MCF7 [12]) was 100% and the Activity (HCT-116 [13]) was 5 - 50%.
With `CC(=O)N[C@@H](CC(C)C)C(=O)N[C@H](C(=O)N[C@@H](Cc1ccccc1)C(=O)N[C@H]1CC(=O)NCCCC[C@@H](C(=O)N[C@@H](CCC(N)=O)C(=O)N[C@@H](CC(C)C)C(=O)N[C@H](C(=O)N[C@@H](CO)C(=O)NCCOCCOCC(=O)N[C@@H](CCCCN)C(N)=O)[C@@H](C)O)NC(=O)[C@H](Cc2c[nH]c3ccccc23)NC(=O)[C@H](Cc2ccc(O)cc2)NC(=O)[C@H](Cc2cnc[nH]2)NC1=O)[C@@H](C)O` (Ac-LTFDHYWKQLTS[AEEA]K-NH2; lactam 4-8) the Activity (SJSA-1 [14]) was “inactive”.
